# Assay results: PubChem BioAssay (NCI)
# Values joined by “and” are separate entries in the source; they are usually repeats but may differ in a detail not shown here. Equal entries are not always repeated.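 In this assay, cells in 96-well plates receive the compound at five concentrations for 48 hours. Endpoints are linearly interpolated between the surrounding concentrations. At the GI50, growth is halved. TGI is the concentration that stops growth completely.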
# Tests used:
# Test in all cases: NCI tumour cell line growth inhibition, 48 h
# [1] = system: CCRF-CEM leukemia
# [2] = system: EKVX NSCLC
# [3] = system: HOP-92 NSCLC
# [4] = system: NCI-H226 lung
# [5] = system: NCI/ADR-RES ovarian
# [6] = system: PC-3 prostate
# [7] = system: RXF 393 renal
# [8] = system: SK-MEL-2 melanoma
SMILES,TGI [1],TGI [2],TGI [3],TGI [4],TGI [5],TGI [6],TGI [7],GI50 [1],GI50 [2],GI50 [4],GI50 [5],GI50 [6],GI50 [7],GI50 [8],TGI [8],GI50 [3]
O=C(O)CSC1=NNC2(C(=O)N1)c1ccccc1-c1ccccc12,> 10 µM,> 10 µM,> 10 µM,> 10 µM,> 10 µM,> 10 µM,> 10 µM,–,–,–,–,–,–,–,–,–
Cc1nc(NS(=O)(=O)c2ccc(NCN3C(=O)c4ccccc4C3=O)cc2)oc1C,0.0422 µM,> 100 µM,–,> 100 µM,> 100 µM,> 100 µM,> 100 µM,0.0113 µM,> 100 µM,> 100 µM,> 100 µM,> 100 µM,> 100 µM,> 100 µM,> 100 µM,–
COC(=O)c1onc(C2OC(C)(C)OC2C(O)COC(c2ccccc2)(c2ccccc2)c2ccccc2)c1C(=O)OC (centres undefined),> 100 µM,> 100 µM,> 100 µM,> 100 µM,–,> 100 µM,> 100 µM,–,–,–,–,–,–,–,> 100 µM,–
COc1c(OC)c(OC)c2c(=O)cc(-c3ccc(OC(C)C)cc3)oc2c1OC,> 68.5 µM,> 54.9 µM,23.4 µM,32.3 µM,61.6 µM,> 100 µM,> 48.7 µM,–,–,–,–,–,–,–,> 50.7 µM,–
COc1cc(F)c(F)cc1C(=O)c1cnc(NC2CCN(S(C)(=O)=O)CC2)nc1N,18.8 µM,–,–,22 µM,> 25 µM,> 25 µM,7.18 µM,4.86 µM,–,3.1 µM,6.48 µM,2 µM,3.01 µM,3.86 µM,12.6 µM,–
O=C1CC(c2cccc(Cl)c2)Oc2ccccc21 (centres undefined),48.4 µM,43.7 µM,42.2 µM,41.3 µM,48.9 µM,30.4 µM,–,–,–,–,–,–,–,–,35.6 µM,–
COc1cc(Cl)c(CC(=O)c2c[nH]c3ccccc23)cc1OC,> 57.5 µM,> 100 µM,15.6 µM,45.1 µM,> 100 µM,> 100 µM,40.9 µM,–,–,–,–,–,–,–,> 100 µM,–
C1CSC[C@H]2COC[C@@H](CSCCS1)S2,> 100 µM,> 100 µM,> 100 µM,–,> 100 µM,> 100 µM,–,–,–,–,–,–,–,–,–,–
O=C1NC(=O)C(c2cccc(Cl)c2)=C1Nc1ccc(Cl)c(C(=O)O)c1,> 25 µM,> 25 µM,> 25 µM,> 25 µM,> 25 µM,> 25 µM,> 25 µM,> 25 µM,> 25 µM,> 25 µM,> 25 µM,> 25 µM,> 25 µM,> 25 µM,> 25 µM,> 25 µM
CN(C)C=N[C@@H](C(=O)O)c1ccccc1,> 100 µM,> 100 µM,> 100 µM,> 100 µM,> 100 µM,> 100 µM,–,–,–,–,–,–,–,–,–,–
N#C/C(=C/N1CCN(C(=O)c2ccco2)C1=S)C(=O)Nc1ccc(Cl)cc1,> 50 µM,–,> 50 µM,–,> 50 µM,> 50 µM,44.9 µM,22.5 µM,–,–,28.1 µM,18.9 µM,13.1 µM,16.7 µM,39.7 µM,21.5 µM
COc1cc(/C=C/C(=O)CC(=O)/C=C/c2cc(OC)c(O)c(OC)c2)cc(OC)c1O,> 25 µM and 64.8 µM,25 µM and 71.2 µM,–,25 µM and > 100 µM,> 100 µM,25 µM and 37.8 µM,7.3 µM and 16.1 µM,4.01 µM,18.7 µM,53.6 µM,> 100 µM,–,2.63 µM,4.24 µM,16.3 µM and 16.6 µM,–
CCCCCCCCCCCNC=O,> 100 µM,> 100 µM,> 100 µM,> 100 µM,96.6 µM,66.9 µM,> 100 µM,–,–,–,–,–,–,–,66.1 µM,–
O=C1OCC2=C1C(c1cccc(C(F)(F)F)c1)c1cc3c(cc1N2CCO)OCCO3 (centres undefined),> 33.3 µM,> 33.3 µM,> 33.3 µM,> 33.3 µM,> 33.3 µM,> 33.3 µM,–,1.5 µM,1.33 µM,> 33.3 µM,1.11 µM,1.24 µM,–,1.99 µM,> 33.3 µM,2.7 µM
COc1cc(C)cc(C(=O)/C=C/c2ccccc2)c1O,84.1 µM,47.8 µM,31.2 µM,73.9 µM,52 µM,49.8 µM,35.7 µM,–,–,–,–,–,–,–,48.2 µM,–
CC(C)=Cc1cc(CCC/C(C)=C/Cc2c(O)cc(C)c(C(=O)O)c2O)co1,> 100 µM,> 100 µM,> 100 µM,–,> 100 µM,> 100 µM,–,–,–,–,–,–,–,–,> 100 µM,–
CC(C)[P+](c1ccccc1)(c1ccccc1)c1ccccc1,> 100 µM,–,–,> 100 µM,> 100 µM,34.6 µM,> 100 µM,4.2 µM,–,5.69 µM,> 100 µM,2.42 µM,27.4 µM,3.77 µM,21.9 µM,–
COC1=C(OC)C(=O)C(C/C=C(\C)CC/C=C(\C)CC/C=C(\C)CC/C=C(\C)CC/C=C(\C)CC/C=C(\C)CC/C=C(\C)CC/C=C(\C)CC/C=C(\C)CCC=C(C)C)=C(C)C1=O,> 100 µM,> 100 µM,> 100 µM,> 100 µM,> 100 µM,> 100 µM,> 100 µM,> 100 µM,> 100 µM,> 100 µM,> 100 µM,> 100 µM,> 100 µM,> 100 µM,> 100 µM,> 100 µM
CN1CCN(CCCOc2ccc3nc(Nc4ccc(F)c(F)c4)ccc3c2)CC1,11.6 µM,13.1 µM,3.6 µM,29.9 µM,14.7 µM,3.72 µM,4.36 µM,1.95 µM,3.17 µM,10.8 µM,3.4 µM,1.72 µM,1.52 µM,1.91 µM,3.8 µM,1.1 µM
COc1ccc2nc(C)cc(Sc3nc4ccccc4s3)c2c1,2.65 µM,8 µM,6.25 µM,4.1 µM,4.42 µM,3 µM,8.19 µM,0.377 µM,1.61 µM,0.728 µM,1.43 µM,0.288 µM,2.63 µM,–,–,0.475 µM

SMILES,TGI [1],TGI [2],TGI [3],TGI [4],TGI [5],TGI [6],TGI [7],GI50 [1],GI50 [2],GI50 [4],GI50 [5],GI50 [6],GI50 [7],GI50 [8],TGI [8],GI50 [3]
CC12OC(C(=O)C13CC3)C1C(=O)c3c(O)ccc(O)c3C(=O)C12 (centres undefined),–,48.3 µM,41 µM,–,66.8 µM,37.1 µM,37.6 µM,–,12.1 µM,–,20.1 µM,16.5 µM,16.7 µM,33.9 µM,> 100 µM,11.9 µM
COc1cc(S(=O)(=O)Nc2nc(-c3ccc(N4C(=O)C(C)SC4c4ccccc4O)cc3)cs2)ccc1Cl (centres undefined),> 100 µM,> 100 µM,> 100 µM,> 100 µM,> 100 µM,> 100 µM,> 100 µM,5.55 µM,42.8 µM,20.3 µM,50.9 µM,30.1 µM,> 100 µM,38.7 µM,> 100 µM,28 µM
COc1ccc(CSC2=C(C#N)C(=O)NC3(CCCCC3)S2)cc1,24.7 µM,> 100 µM,> 100 µM,> 100 µM,> 100 µM,> 100 µM,> 73.3 µM,–,–,–,–,–,–,–,> 100 µM,–
COc1cc(C2c3cc4c(cc3OC(O)C2C)OCO4)cc(OC)c1OC (centres undefined),–,> 100 µM,7.53 µM,7.33 µM,0.504 µM,> 100 µM,> 100 µM,–,–,–,–,–,–,–,13.3 µM,–
Cc1ccc(S(=O)(=O)n2cc([C@@]3(O)C[C@H](CSC#N)OC3=O)c3ccccc32)cc1,25.2 µM,> 100 µM,71.3 µM,32.6 µM,38.8 µM,50.4 µM,7.61 µM,3.17 µM,> 100 µM,16.8 µM,13.5 µM,17.8 µM,2.13 µM,9.23 µM,24.4 µM,23.9 µM
NC(N)=NC(N)=Nc1ccc(C(=O)O)cc1,> 100 µM,> 100 µM,> 100 µM,> 100 µM,> 100 µM,> 100 µM,> 100 µM,–,–,–,–,–,–,–,> 100 µM,–
OCCCCC#Cc1ccccc1C#Cc1cccnc1,> 100 µM,> 100 µM,> 100 µM,> 100 µM,> 100 µM,> 100 µM,28.6 µM,33.9 µM,41.7 µM,34.1 µM,28.9 µM,36.3 µM,5.95 µM,87.9 µM,> 100 µM,38.2 µM
COc1ccc(Nc2ncnc3ccc(-c4cncc(NS(C)(=O)=O)c4)cc23)cc1Cl,10 µM,6.82 µM,4.62 µM,18.1 µM,81.5 µM,16.6 µM,5.63 µM,0.896 µM,1.99 µM,2.69 µM,21.4 µM,2.83 µM,2.08 µM,1.02 µM,2.67 µM,0.348 µM
C=C(C)[C@@H]1CCc2c(O)c(O)c(=O)cc(C)c2C1,–,> 100 µM,17 µM,> 63 µM,25.8 µM,> 100 µM,> 21.2 µM,–,–,–,–,–,–,–,> 100 µM,–
C=C(C(=O)OC)[C@@H]1CC2OC1C(=O)C(C)CCC/C(C)=C/CC[C@@]2(C)O (some centres undefined),36.1 µM,> 100 µM,95.2 µM,–,86.4 µM,> 100 µM,36.4 µM,11 µM,63.2 µM,–,28.8 µM,36.8 µM,18 µM,37.8 µM,> 100 µM,23.8 µM
CC(C)C1(NC(=O)C2CC3c4cccc5[nH]cc(c45)CC3N(C)C2)OC2(O)C3CCCN3C(=O)C(Cc3ccccc3)N2C1=O (centres undefined),> 100 µM,> 100 µM,> 100 µM,–,> 100 µM,> 100 µM,–,–,–,–,–,–,–,–,> 100 µM,–
O=C(O)COc1ccc(OCC(=O)O)cc1,21 µM,74.4 µM,7.59 µM,0.789 µM,> 100 µM,17.2 µM,4.64 µM,0.2 µM,6.43 µM,0.19 µM,56.6 µM,2.03 µM,0.97 µM,3.28 µM,15.9 µM,0.319 µM
O=C1C=CC(=O)c2c1ccc1c3ccccc3n(Cc3ccccc3)c21,10.9 µM,> 100 µM,–,24.7 µM,> 68.4 µM,53.3 µM,32.8 µM,–,–,–,–,–,–,–,99.6 µM,–
CC12CCC(=O)C(O1)C1C(=O)c3ccc4c(ccc5ccccc54)c3C(=O)C12 (centres undefined),> 100 µM,19 µM,32.3 µM,12.7 µM,12.6 µM,10.7 µM,2.03 µM,3.77 µM,8.47 µM,5.78 µM,5.43 µM,4.36 µM,–,10 µM,> 28.6 µM,7.1 µM
C=CC1C(CC2OC(CO)C(O)C(O)C2O)OC=C2C(=O)OCCC21O (centres undefined),28.9 µM,> 100 µM,9.35 µM,76.5 µM,> 100 µM,27.9 µM,–,5.32 µM,39.8 µM,20.9 µM,24 µM,11 µM,–,22.4 µM,71.4 µM,1.68 µM
CC(C)=Cc1cc(C)c2ccc(C)c3c2c1C(C)=C(O)C3=O,19.7 µM,> 100 µM,–,81 µM,51.3 µM,37.8 µM,> 100 µM,4.45 µM,40.8 µM,30.8 µM,15.7 µM,12.6 µM,41.9 µM,25.7 µM,82.3 µM,–
FC(F)c1ncc(-c2ccc(C(F)(F)F)cc2)c(NC2CCCCCC2)n1,> 10 µM,–,> 10 µM,> 10 µM,> 10 µM,> 10 µM,> 10 µM,> 10 µM,–,> 10 µM,> 10 µM,> 10 µM,> 10 µM,> 10 µM,> 10 µM,> 10 µM
Cc1cc(=O)[nH]c(N/N=C/c2ccccc2O)n1,> 100 µM,–,–,> 100 µM,> 100 µM,> 100 µM,92.6 µM,4.02 µM,–,24.3 µM,3.52 µM,4.95 µM,12.8 µM,> 100 µM,> 100 µM,–
CC(C)(C)c1ccc(C2CC(=O)C3=C(C2)Nc2ccccc2N(C(=O)c2ccccc2Cl)C3c2ccc(F)cc2)cc1 (centres undefined),> 100 µM,–,> 100 µM,> 100 µM,> 100 µM,> 100 µM,> 100 µM,> 100 µM,–,> 100 µM,> 100 µM,7.01 µM,> 100 µM,–,–,> 100 µM
